We go through 19 molecules from the supplement of paper PMC8967900.
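Also: ALL cell lines in 384-well plates, five doses spanning 10,000-fold, each plate scaled between vehicle and 100 µmol/L benzalkonium chloride controls, sDSS an adapted area-under-curve metric.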

One experiment relates to COG-LL-317. Put plainly: selective drug sensitivity score (sDSS, relative to normal bone marrow) (sDSS (score)); higher = more potent and effective on the cell line relative to normal bone marrow cells. The note with it: 72 h.
As to `C[C@@H]1CN(CC(=O)Nc2ccc3c(c2)Cc2cccc(-c4cc(=O)cc(N5CCOCC5)o4)c2S3)C[C@H](C)O1` (top concentration 25000 nM), the “selective drug sensitivity score” value was -1.78.
Turning to `COc1ccc2[nH]cc(/C=C3\C(=O)Nc4ccc(NC(=O)CCN5CCCCC5)cc43)c2c1` (top concentration 50000 nM), the “selective drug sensitivity score” value worked out at 2.58.
On the same count and under the same terms, the result for `Cc1nn(C)c(COc2ccc(N3CCN(S(=O)(=O)N(C)C)CC3)cc2)c1-c1cccc2c(CCCOc3cccc4ccccc34)c(C(=O)O)n(CCN3CCOCC3)c12` (top concentration 50000 nM) reads 2.16.
Still for that read-out and setting: for `C[C@H](Nc1ncnc2[nH]cnc12)c1cc2ccc(F)cc2nc1-c1ccccn1` [AMG319] (top concentration 1000 nM) the value was -1.42.
For `C=CCn1c(=O)c2cnc(Nc3ccc(N4CCN(C)CC4)cc3)nc2n1-c1cccc(C(C)(C)O)n1` [AZD1775] (top concentration 10000 nM), the “selective drug sensitivity score” value turned out to be 20.5.
The same measure, in the same setting: for `NC(=O)Nc1cc(-c2cccc(F)c2)sc1C(=O)N[C@H]1CCCNC1` [AZD7762] (top concentration 1000 nM) the value was 7.6; for `Cc1cc([C@@H](C)Nc2ccccc2C(=O)O)c2nc(N3CCOCC3)cc(=O)n2c1` [AZD-6482] (top concentration 2500 nM), -0.18.
Regarding `CN(C)Cc1c(C(=O)NCCOc2ccc(C(=O)NO)cc2)oc2ccccc12` [Abexinostat] (top concentration 10000 nM), the “selective drug sensitivity score” value was found to be 2.36.
As for `S=C(NCc1ccc2c(c1)OCO2)N1CCN(c2ncnc3c2oc2ccccc23)CC1` [Amuvatinib] (top concentration 10000 nM), the “selective drug sensitivity score” value stood at 0.96.
For `CC(=O)OC[C@H]1O[C@@H]([S-])[C@H](OC(C)=O)[C@@H](OC(C)=O)[C@@H]1OC(C)=O.CCP(CC)CC.[Au+]` [Auranofin] (top concentration 2500 nM), the “selective drug sensitivity score” value is 3.44.

A further experiment deals with COG-LL-319h. Described as above. The note with it: 72 h.
`Cc1c(-c2ccc(N3CCc4cccc(C(=O)Nc5nc6ccccc6s5)c4C3)nc2C(=O)O)cnn1CC12CC3CC(CC(C3)C1)C2` (top concentration 1000 nM): the “selective drug sensitivity score” value came to 19.4.
Regarding `O=C(NOC[C@H](O)CO)c1ccc(F)c(F)c1Nc1ccc(I)cc1F` (top concentration 1000 nM), the “selective drug sensitivity score” value worked out at 2.44.
Regarding `CO[C@@H](C)Cn1c(=O)n(C)c2cnc3ccc(-c4cncc(C(C)(C)O)c4)cc3c21` (top concentration 2500 nM), the “selective drug sensitivity score” value is 5.48.
For `Cc1cccc(CC(=O)N2CCc3c2ccc(-c2cn(C)c4ncnc(N)c24)c3F)n1` (top concentration 2500 nM), the “selective drug sensitivity score” value is 0.52.
Same read-out and setting: for `CNC(=O)c1ccccc1Nc1nc(Nc2ccc3c(c2OC)CCC[C@H](N2CCN(CCO)CC2)C3)ncc1Cl` (top concentration 5000 nM) the value was 8.86; for `COc1cc2ncnc(Oc3cccc(NC(=O)Nc4cc(C(C)(C)C(F)(F)F)on4)c3)c2cc1OC` (top concentration 10000 nM), 12.3; for `C[C@@H](Oc1cc(-n2cnc3ccc(CN4CCN(C)CC4)cc32)sc1C(N)=O)c1ccccc1C(F)(F)F` (top concentration 10000 nM), 14.7.
On the same count and under the same terms, for `Nc1nccc(-c2c(-c3ccc(F)cc3)ncn2C2CCCCC2)n1` (top concentration 10000 nM) the value was 2.5; for `O=C(O)c1ccc(-c2c[nH]c3ncc(-c4ccccc4)cc23)cc1C1CCCC1` (top concentration 10000 nM), 1.36.
Same read-out and setting: for `C[C@@H]1CN(CC(=O)Nc2ccc3c(c2)Cc2cccc(-c4cc(=O)cc(N5CCOCC5)o4)c2S3)C[C@H](C)O1` (top concentration 25000 nM) the value was 6.72; for `COc1ccc2[nH]cc(/C=C3\C(=O)Nc4ccc(NC(=O)CCN5CCCCC5)cc43)c2c1` (top concentration 50000 nM), -4.42.
With `Cc1nn(C)c(COc2ccc(N3CCN(S(=O)(=O)N(C)C)CC3)cc2)c1-c1cccc2c(CCCOc3cccc4ccccc34)c(C(=O)O)n(CCN3CCOCC3)c12` (top concentration 50000 nM), the “selective drug sensitivity score” value is 5.26.
Regarding `C[C@H](Nc1ncnc2[nH]cnc12)c1cc2ccc(F)cc2nc1-c1ccccn1` [AMG319] (top concentration 1000 nM), the “selective drug sensitivity score” value was 10.1.
The same measure, in the same setting: the result for `C=CCn1c(=O)c2cnc(Nc3ccc(N4CCN(C)CC4)cc3)nc2n1-c1cccc(C(C)(C)O)n1` [AZD1775] (top concentration 10000 nM) reads 18.8.
On the same count and under the same terms, the result for `NC(=O)Nc1cc(-c2cccc(F)c2)sc1C(=O)N[C@H]1CCCNC1` [AZD7762] (top concentration 1000 nM) reads 2.8; that for `Cc1cc([C@@H](C)Nc2ccccc2C(=O)O)c2nc(N3CCOCC3)cc(=O)n2c1` [AZD-6482] (top concentration 2500 nM), 13.6; that for `CN(C)Cc1c(C(=O)NCCOc2ccc(C(=O)NO)cc2)oc2ccccc12` [Abexinostat] (top concentration 10000 nM), 8.36.
For `S=C(NCc1ccc2c(c1)OCO2)N1CCN(c2ncnc3c2oc2ccccc23)CC1` [Amuvatinib] (top concentration 10000 nM), the “selective drug sensitivity score” value turned out to be 5.96.
Turning to `CC(=O)OC[C@H]1O[C@@H]([S-])[C@H](OC(C)=O)[C@@H](OC(C)=O)[C@@H]1OC(C)=O.CCP(CC)CC.[Au+]` [Auranofin] (top concentration 2500 nM), the “selective drug sensitivity score” value came to 8.24.

Another experiment concerns COG-LL-355h. The description is as above. The note with it: 72 h.
In the case of `Cc1c(-c2ccc(N3CCc4cccc(C(=O)Nc5nc6ccccc6s5)c4C3)nc2C(=O)O)cnn1CC12CC3CC(CC(C3)C1)C2` (top concentration 1000 nM), the “selective drug sensitivity score” value worked out at 18.2.
Consider `O=C(NOC[C@H](O)CO)c1ccc(F)c(F)c1Nc1ccc(I)cc1F` (top concentration 1000 nM), for which the “selective drug sensitivity score” value turned out to be 6.94.
Still for that read-out and setting: the result for `CO[C@@H](C)Cn1c(=O)n(C)c2cnc3ccc(-c4cncc(C(C)(C)O)c4)cc3c21` (top concentration 2500 nM) reads 3.88.
The same measure, in the same setting: for `Cc1cccc(CC(=O)N2CCc3c2ccc(-c2cn(C)c4ncnc(N)c24)c3F)n1` (top concentration 2500 nM) the value was -0.28; for `CNC(=O)c1ccccc1Nc1nc(Nc2ccc3c(c2OC)CCC[C@H](N2CCN(CCO)CC2)C3)ncc1Cl` (top concentration 5000 nM), 6.96; for `COc1cc2ncnc(Oc3cccc(NC(=O)Nc4cc(C(C)(C)C(F)(F)F)on4)c3)c2cc1OC` (top concentration 10000 nM), 4.9.
With `C[C@@H](Oc1cc(-n2cnc3ccc(CN4CCN(C)CC4)cc32)sc1C(N)=O)c1ccccc1C(F)(F)F` (top concentration 10000 nM), the “selective drug sensitivity score” value was 5.62.
In the case of `Nc1nccc(-c2c(-c3ccc(F)cc3)ncn2C2CCCCC2)n1` (top concentration 10000 nM), the “selective drug sensitivity score” value was found to be 0.
For `O=C(O)c1ccc(-c2c[nH]c3ncc(-c4ccccc4)cc23)cc1C1CCCC1` (top concentration 10000 nM), the “selective drug sensitivity score” value was -0.44.
`C[C@@H]1CN(CC(=O)Nc2ccc3c(c2)Cc2cccc(-c4cc(=O)cc(N5CCOCC5)o4)c2S3)C[C@H](C)O1` (top concentration 25000 nM): the “selective drug sensitivity score” value came to 3.02.
For the molecule `COc1ccc2[nH]cc(/C=C3\C(=O)Nc4ccc(NC(=O)CCN5CCCCC5)cc43)c2c1` (top concentration 50000 nM), the “selective drug sensitivity score” value was found to be 0.28.
As to `Cc1nn(C)c(COc2ccc(N3CCN(S(=O)(=O)N(C)C)CC3)cc2)c1-c1cccc2c(CCCOc3cccc4ccccc34)c(C(=O)O)n(CCN3CCOCC3)c12` (top concentration 50000 nM), the “selective drug sensitivity score” value turned out to be 15.3.
For `C[C@H](Nc1ncnc2[nH]cnc12)c1cc2ccc(F)cc2nc1-c1ccccn1` [AMG319] (top concentration 1000 nM), the “selective drug sensitivity score” value is 4.58.
Consider `C=CCn1c(=O)c2cnc(Nc3ccc(N4CCN(C)CC4)cc3)nc2n1-c1cccc(C(C)(C)O)n1` [AZD1775] (top concentration 10000 nM), for which the “selective drug sensitivity score” value turned out to be 7.24.
The same measure, in the same setting: the result for `NC(=O)Nc1cc(-c2cccc(F)c2)sc1C(=O)N[C@H]1CCCNC1` [AZD7762] (top concentration 1000 nM) reads -0.1; that for `Cc1cc([C@@H](C)Nc2ccccc2C(=O)O)c2nc(N3CCOCC3)cc(=O)n2c1` [AZD-6482] (top concentration 2500 nM), 6.92.
On the same count and under the same terms, the result for `CN(C)Cc1c(C(=O)NCCOc2ccc(C(=O)NO)cc2)oc2ccccc12` [Abexinostat] (top concentration 10000 nM) reads 3.36; that for `S=C(NCc1ccc2c(c1)OCO2)N1CCN(c2ncnc3c2oc2ccccc23)CC1` [Amuvatinib] (top concentration 10000 nM), 2.06; that for `CC(=O)OC[C@H]1O[C@@H]([S-])[C@H](OC(C)=O)[C@@H](OC(C)=O)[C@@H]1OC(C)=O.CCP(CC)CC.[Au+]` [Auranofin] (top concentration 2500 nM), 6.34.
